Assay results from ChEMBL document CHEMBL1133722 (J Med Chem, 2000).

These compounds were tested against T1, Mu-type opioid receptor (Homo sapiens, UniProt P35372) (assay: Binding affinity using [3H]diprenorphine as the radioligand against wild-type Opioid receptor mu 1 in COS-7 cells).
Type: cell-based, Cercopithecidae

T1 sequence (P35372 whole entry): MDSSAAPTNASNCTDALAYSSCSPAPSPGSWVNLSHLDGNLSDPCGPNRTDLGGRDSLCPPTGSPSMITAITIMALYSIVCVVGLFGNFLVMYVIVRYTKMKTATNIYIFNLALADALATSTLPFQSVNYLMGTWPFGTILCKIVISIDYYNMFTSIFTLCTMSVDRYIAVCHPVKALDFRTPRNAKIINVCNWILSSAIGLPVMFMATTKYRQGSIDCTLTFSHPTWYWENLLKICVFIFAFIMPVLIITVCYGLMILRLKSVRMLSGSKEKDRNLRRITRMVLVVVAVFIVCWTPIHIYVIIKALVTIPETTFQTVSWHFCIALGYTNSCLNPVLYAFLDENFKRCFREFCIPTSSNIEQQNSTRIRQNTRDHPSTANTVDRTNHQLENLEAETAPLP

| SMILES | Ki [nM] |
| --- | --- |
| CC(=O)N1CC[C@]23c4c5ccc(O)c4O[C@H]2c2[nH]c4c(c2C[C@@]3(O)[C@H]1C5)C[C@@]1(O)[C@H]2Cc3ccc(O)c5c3[C@@]1(CCN2CC1CC1)[C@H]4O5 | 102 |
| CN1CC[C@]23c4c5ccc(O)c4O[C@H]2c2[nH]c4c(c2C[C@@]3(O)[C@H]1C5)C[C@@]1(O)[C@H]2Cc3ccc(O)c5c3[C@@]1(CCN2C)[C@H]4O5 | > 1000 |
| CN1CC[C@]23c4c5ccc(O)c4O[C@H]2c2[nH]c4c(c2C[C@H]3[C@H]1C5)C[C@@]1(O)[C@H]2Cc3ccc(O)c5c3[C@@]1(CCN2CC1CC1)[C@H]4O5 | 40 |
| COc1ccc2c3c1O[C@H]1c4[nH]c5c(c4C[C@@]4(O)[C@@H](C2)N(CC2CC2)CC[C@]314)C[C@@]1(O)[C@H]2Cc3ccc(O)c4c3[C@@]1(CCN2CC1CC1)[C@H]5O4 | 276 |
| COc1ccc2c3c1O[C@H]1c4[nH]c5c(c4C[C@@]4(O)[C@@H](C2)N(CC2CC2)CC[C@]314)C[C@@]1(O)[C@H]2Cc3ccc(O)c4c3[C@@]1(CCN2C)[C@H]5O4 | 165 |

What follows are compounds tested against T2, Kappa-type opioid receptor (Homo sapiens, UniProt P41145) (assay: Binding affinity using [3H]diprenorphine as the radioligand against wild-type Opioid receptor kappa 1r in COS-7 cells).
Type: cell-based, Cercopithecidae

T2 sequence (P41145 whole entry): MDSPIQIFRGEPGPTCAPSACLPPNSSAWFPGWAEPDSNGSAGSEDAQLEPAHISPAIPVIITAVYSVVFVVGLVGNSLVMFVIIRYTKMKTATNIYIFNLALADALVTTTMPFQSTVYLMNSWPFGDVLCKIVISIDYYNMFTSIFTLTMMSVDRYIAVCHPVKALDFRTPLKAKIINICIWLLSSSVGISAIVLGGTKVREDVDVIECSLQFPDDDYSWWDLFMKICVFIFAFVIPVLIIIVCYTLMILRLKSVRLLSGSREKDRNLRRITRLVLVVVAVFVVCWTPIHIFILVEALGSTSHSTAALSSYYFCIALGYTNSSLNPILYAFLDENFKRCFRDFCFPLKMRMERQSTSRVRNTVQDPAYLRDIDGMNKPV

| SMILES | Ki [nM] |
| --- | --- |
| N=C(N)N1CC[C@]23c4c5ccc(O)c4O[C@H]2c2[nH]c4c(c2C[C@@]3(O)[C@H]1C5)C[C@@]1(O)[C@H]2Cc3ccc(O)c5c3[C@@]1(CCN2CC1CC1)[C@H]4O5 | 0.57 |

The compounds below were run against Kappa-type opioid receptor (Homo sapiens, UniProt P41145, E297K) (assay: Binding affinity using [3H]diprenorphine as the radioligand against E297K mutant Opioid receptor kappa 1 in COS-7 cells).
Type: cell-based, Cercopithecidae

Chain of Kappa-type opioid receptor (Homo sapiens, UniProt P41145, E297K) (P41145 whole entry E297K): as the sequence (P41145 whole entry) above, with E297K counted along it

| SMILES | Ki [nM] |
| --- | --- |
| CC(=O)N1CC[C@]23c4c5ccc(O)c4O[C@H]2c2[nH]c4c(c2C[C@@]3(O)[C@H]1C5)C[C@@]1(O)[C@H]2Cc3ccc(O)c5c3[C@@]1(CCN2CC1CC1)[C@H]4O5 | 104 |
| CN1CC[C@]23c4c5ccc(O)c4O[C@H]2c2[nH]c4c(c2C[C@@]3(O)[C@H]1C5)C[C@@]1(O)[C@H]2Cc3ccc(O)c5c3[C@@]1(CCN2C)[C@H]4O5 | > 1000 |
| CN1CC[C@]23c4c5ccc(O)c4O[C@H]2c2[nH]c4c(c2C[C@H]3[C@H]1C5)C[C@@]1(O)[C@H]2Cc3ccc(O)c5c3[C@@]1(CCN2CC1CC1)[C@H]4O5 | 39.9 |
| COc1ccc2c3c1O[C@H]1c4[nH]c5c(c4C[C@@]4(O)[C@@H](C2)N(CC2CC2)CC[C@]314)C[C@@]1(O)[C@H]2Cc3ccc(O)c4c3[C@@]1(CCN2CC1CC1)[C@H]5O4 | 28 |
| COc1ccc2c3c1O[C@H]1c4[nH]c5c(c4C[C@@]4(O)[C@@H](C2)N(CC2CC2)CC[C@]314)C[C@@]1(O)[C@H]2Cc3ccc(O)c4c3[C@@]1(CCN2C)[C@H]5O4 | > 1000 |
| N=C(N)N1CC[C@]23c4c5ccc(O)c4O[C@H]2c2[nH]c4c(c2C[C@@]3(O)[C@H]1C5)C[C@@]1(O)[C@H]2Cc3ccc(O)c5c3[C@@]1(CCN2CC1CC1)[C@H]4O5 | 189 |

These compounds were tested against T1, Mu-type opioid receptor (assay: Binding affinity using [3H]diprenorphine as the radioligand against K303E Opioid receptor mu 1 in COS-7 cells).
Type: cell-based, Cercopithecidae

| SMILES | Ki [nM] |
| --- | --- |
| CC(=O)N1CC[C@]23c4c5ccc(O)c4O[C@H]2c2[nH]c4c(c2C[C@@]3(O)[C@H]1C5)C[C@@]1(O)[C@H]2Cc3ccc(O)c5c3[C@@]1(CCN2CC1CC1)[C@H]4O5 | 42 |
| CN1CC[C@]23c4c5ccc(O)c4O[C@H]2c2[nH]c4c(c2C[C@@]3(O)[C@H]1C5)C[C@@]1(O)[C@H]2Cc3ccc(O)c5c3[C@@]1(CCN2C)[C@H]4O5 | 41.7 |
| CN1CC[C@]23c4c5ccc(O)c4O[C@H]2c2[nH]c4c(c2C[C@H]3[C@H]1C5)C[C@@]1(O)[C@H]2Cc3ccc(O)c5c3[C@@]1(CCN2CC1CC1)[C@H]4O5 | 0.16 |
| COc1ccc2c3c1O[C@H]1c4[nH]c5c(c4C[C@@]4(O)[C@@H](C2)N(CC2CC2)CC[C@]314)C[C@@]1(O)[C@H]2Cc3ccc(O)c4c3[C@@]1(CCN2CC1CC1)[C@H]5O4 | 2.7 |
| COc1ccc2c3c1O[C@H]1c4[nH]c5c(c4C[C@@]4(O)[C@@H](C2)N(CC2CC2)CC[C@]314)C[C@@]1(O)[C@H]2Cc3ccc(O)c4c3[C@@]1(CCN2C)[C@H]5O4 | 52 |

The compounds below were run against Kappa-type opioid receptor (Homo sapiens, UniProt P41145, E297A) (assay: Binding affinity using [3H]diprenorphine as the radioligand against E297A mutant Opioid receptor kappa 1 in COS-7 cells).
Type: cell-based, Cercopithecidae

Chain of Kappa-type opioid receptor (Homo sapiens, UniProt P41145, E297A) (P41145 whole entry E297A): as the sequence (P41145 whole entry) above, with E297A counted along it

| SMILES | Ki [nM] |
| --- | --- |
| CC(=O)N1CC[C@]23c4c5ccc(O)c4O[C@H]2c2[nH]c4c(c2C[C@@]3(O)[C@H]1C5)C[C@@]1(O)[C@H]2Cc3ccc(O)c5c3[C@@]1(CCN2CC1CC1)[C@H]4O5 | 104 |
| CN1CC[C@]23c4c5ccc(O)c4O[C@H]2c2[nH]c4c(c2C[C@@]3(O)[C@H]1C5)C[C@@]1(O)[C@H]2Cc3ccc(O)c5c3[C@@]1(CCN2C)[C@H]4O5 | > 1000 |
| CN1CC[C@]23c4c5ccc(O)c4O[C@H]2c2[nH]c4c(c2C[C@H]3[C@H]1C5)C[C@@]1(O)[C@H]2Cc3ccc(O)c5c3[C@@]1(CCN2CC1CC1)[C@H]4O5 | 39.6 |
| COc1ccc2c3c1O[C@H]1c4[nH]c5c(c4C[C@@]4(O)[C@@H](C2)N(CC2CC2)CC[C@]314)C[C@@]1(O)[C@H]2Cc3ccc(O)c4c3[C@@]1(CCN2CC1CC1)[C@H]5O4 | 17 |
| COc1ccc2c3c1O[C@H]1c4[nH]c5c(c4C[C@@]4(O)[C@@H](C2)N(CC2CC2)CC[C@]314)C[C@@]1(O)[C@H]2Cc3ccc(O)c4c3[C@@]1(CCN2C)[C@H]5O4 | > 1000 |

What follows are compounds tested against T2, Kappa-type opioid receptor (assay: Binding affinity using [3H]diprenorphine as the radioligand against wild-type Opioid receptor kappa 1 in COS-7 cells).
Type: cell-based, Cercopithecidae

| SMILES | Ki [nM] |
| --- | --- |
| CC(=O)N1CC[C@]23c4c5ccc(O)c4O[C@H]2c2[nH]c4c(c2C[C@@]3(O)[C@H]1C5)C[C@@]1(O)[C@H]2Cc3ccc(O)c5c3[C@@]1(CCN2CC1CC1)[C@H]4O5 | 23.6 |
| CN1CC[C@]23c4c5ccc(O)c4O[C@H]2c2[nH]c4c(c2C[C@@]3(O)[C@H]1C5)C[C@@]1(O)[C@H]2Cc3ccc(O)c5c3[C@@]1(CCN2C)[C@H]4O5 | 21.7 |
| CN1CC[C@]23c4c5ccc(O)c4O[C@H]2c2[nH]c4c(c2C[C@H]3[C@H]1C5)C[C@@]1(O)[C@H]2Cc3ccc(O)c5c3[C@@]1(CCN2CC1CC1)[C@H]4O5 | 0.32 |
| COc1ccc2c3c1O[C@H]1c4[nH]c5c(c4C[C@@]4(O)[C@@H](C2)N(CC2CC2)CC[C@]314)C[C@@]1(O)[C@H]2Cc3ccc(O)c4c3[C@@]1(CCN2CC1CC1)[C@H]5O4 | 0.39 |
| COc1ccc2c3c1O[C@H]1c4[nH]c5c(c4C[C@@]4(O)[C@@H](C2)N(CC2CC2)CC[C@]314)C[C@@]1(O)[C@H]2Cc3ccc(O)c4c3[C@@]1(CCN2C)[C@H]5O4 | 36.3 |
